Columns and labels:
Assay type in all cases: cell-based, human
HFF cells = assay: Senescence-associated β-galactosidase assay; settings: 3 μM for 23 days
Description: Senescence assay. Senescence-associated β-galactosidase was detected as previously described (2). Cells were observed under the microscope until the development of the blue color and the reaction was terminated. Images were captured; stained and unstained cells were counted from multiple fields to quantitate the percent senescent cells.

HeLa cells = assay: Cell cycle analysis (PI flow cytometry)
Procedure: (§1) Cell cycle analysis. […] Cells were then washed and stained with propidium iodide (PI) solution containing 25 μg/mL PI (Sigma), and 100 μg/mL Ribonuclease-A (Sigma) for 30 minutes in the dark. Flow cytometry was performed on BD FACS Canto II and cells were analyzed using FlowJo v.10 (FlowJo, USA) software.

MB004 cells [1] = assay: Cell cycle analysis (PI flow cytometry); settings: 3 μM for 3 days
Procedure: as §1

MB004 cells [2] = assay: Sphere formation assay; settings: 3 μM, day 7
Procedure: Cell growth and sphere formation assay. After dissociating primary neurospheres by TrypLE express (Gibco), single cells were seeded in respective growth media in 6-well plates and were incubated for one week at varying concentrations (0.5 to 10 μM) of 6-thio-dG or DMSO. Fresh culture media were added every three days. Viable cell numbers were determined by trypan blue exclusion method. For sphere formation assay, MB004 single cells were seeded in limited dilution (10 cells/well in 96-well plate) and treated with DMSO or 6-thio-dG. Sphere formation was monitored by microscopy.

Nc1nc2c(ncn2[C@H]2C[C@H](O)[C@@H](CO)O2)c(=S)[nH]1 [6-thio-dG, 6-thio-2′-deoxyguanosine]
cells SA-β-gal-positive (HFF cells): 7% | effect on cell cycle progression after drug removal (HeLa cells; 3 μM 3 days, then drug removed): persisted several days after drug withdrawal | cell cycle progression (HeLa cells; 3 μM, three days): caused G2/M arrest | cell cycle populations (HeLa cells; continuous treatment, 3 μM): sharp increase in G2/M, >4n and sub-G1 cell populations | cell cycle populations (MB004 cells [1]): increase in sub-G1 and G2/M cell populations | sphere formation ability (MB004 cells [2]): total abolition of sphere formation ability
